What is called IC50 is the concentration needed to halve the response being measured. Low values mean greater potency in that assay, high ones weaker potency in that assay.

The text below walks through data of patent publication US20260115194A1, “NEW TREATMENTS FOR PAIN” (Sevenless Therapeutics Limited, priority 2023, published 2026).

The assay has as its target T1, KRAS WT/SOS1 (Homo sapiens, UniProt Q07889).
T1 sequence (Q07889 1-1333): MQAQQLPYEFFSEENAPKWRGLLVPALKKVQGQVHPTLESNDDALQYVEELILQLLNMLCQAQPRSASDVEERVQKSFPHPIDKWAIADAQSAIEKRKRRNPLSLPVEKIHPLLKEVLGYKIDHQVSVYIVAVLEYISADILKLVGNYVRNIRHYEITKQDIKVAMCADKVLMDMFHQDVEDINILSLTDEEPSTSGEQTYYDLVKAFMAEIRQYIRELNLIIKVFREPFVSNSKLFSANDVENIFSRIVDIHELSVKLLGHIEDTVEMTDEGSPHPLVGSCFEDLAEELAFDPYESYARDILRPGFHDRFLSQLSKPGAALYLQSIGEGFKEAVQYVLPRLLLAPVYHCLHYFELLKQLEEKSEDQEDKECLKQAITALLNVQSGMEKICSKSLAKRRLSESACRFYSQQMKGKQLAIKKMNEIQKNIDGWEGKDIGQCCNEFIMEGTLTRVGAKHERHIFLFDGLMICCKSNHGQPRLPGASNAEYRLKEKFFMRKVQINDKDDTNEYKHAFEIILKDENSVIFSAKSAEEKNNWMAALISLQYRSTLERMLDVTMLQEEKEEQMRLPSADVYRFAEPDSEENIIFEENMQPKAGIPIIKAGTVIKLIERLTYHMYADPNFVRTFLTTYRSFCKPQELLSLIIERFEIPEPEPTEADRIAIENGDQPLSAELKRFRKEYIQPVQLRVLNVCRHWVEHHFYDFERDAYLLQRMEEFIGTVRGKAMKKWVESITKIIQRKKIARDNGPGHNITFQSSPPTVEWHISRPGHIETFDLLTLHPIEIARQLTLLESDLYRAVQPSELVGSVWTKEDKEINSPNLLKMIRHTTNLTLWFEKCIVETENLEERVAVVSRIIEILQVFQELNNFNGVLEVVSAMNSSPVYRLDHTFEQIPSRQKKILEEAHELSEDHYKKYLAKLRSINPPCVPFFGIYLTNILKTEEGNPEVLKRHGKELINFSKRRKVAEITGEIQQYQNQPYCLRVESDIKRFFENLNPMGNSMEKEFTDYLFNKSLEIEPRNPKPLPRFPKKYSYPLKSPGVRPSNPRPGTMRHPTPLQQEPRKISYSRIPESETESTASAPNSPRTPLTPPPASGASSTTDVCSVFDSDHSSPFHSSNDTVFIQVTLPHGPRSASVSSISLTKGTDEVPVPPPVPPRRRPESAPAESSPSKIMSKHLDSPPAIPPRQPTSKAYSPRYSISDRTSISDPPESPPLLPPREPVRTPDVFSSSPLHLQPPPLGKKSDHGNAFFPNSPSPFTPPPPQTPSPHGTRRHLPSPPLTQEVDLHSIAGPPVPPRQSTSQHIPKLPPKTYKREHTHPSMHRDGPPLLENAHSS
In words: HTRF KRAS WT/SOS1 PPI kit (Cisbio) screen for SOS1 inhibitors. In kind it is binding. The note with it: 10-point 1/2-log dilution from 10 μM, 60 minutes at room temperature. On the procedure:
Compounds were screened using an HTRF KRAS WT/SOS1 PPI kit provided by Cis bio, according to the manufacturer's instructions, with the modifications described below. All reagents were allowed to equilibrate to room temperature and diluted to working stock in Binding Domain Detection buffer (BDD buffer). Stock solutions were prepared by adding 1 part Tag1-KRAS WT/GTP to 1 part Tag2-SOS1 and 1 part BDD. Separately, 1 part Anti-Tag1 XL665 antibody premix was added to Anti-Tag2 Tb cryptate antibody premix. BI-3406 (Selleck Chemicals) was used as a standard, solubilised to 10 mM in DMSO. Test compounds were also solubilised to 10 mM in DMSO. […] Per well, 6 μL of Tag1-KRAS WT/GTP premix, 4 ul Tag2-SOS1 premix and 10 μl of Anti-Tag1 XL665 and Anti-Tag2 Tb cryptate antibodies were then added using a E1-ClipTip™ Electronic Adjustable Multichannel Equalizer Pipette. After the final addition, the plate was covered and placed in the benchtop incubator set at 22° C. The reaction was incubated for 60 minutes at room temperature, prior to reading using a Pherastar FSX plate reader.

As to `Cc1nc(N[C@H](C)c2cccc(C(F)F)c2F)c2cc(S(=O)(=O)N3CC4CC(C3)O4)ncc2n1` [Example 18, 6-((6-oxa-3-azabicyclo [3.1.1]heptan-3-yl)sulfonyl)-N—((R)-1-(3-(difluoromethyl)-2-fluorophenyl)ethyl)-2-methylpyrido[3,4-d] pyrimidin-4-amine], the half-inhibitory concentration (IC50) is < 100 nM.
